Results from ChEMBL document CHEMBL5376008, “Total Synthesis, Revised Structure, and Biological Evaluation of Elgonene B and Analogues” (J Nat Prod, 2024).
Active and inactive are the calls of the source. No cut-off for these calls is given here.

Columns and labels:
KB 3-1 = experiment: Cytotoxicity against human KB-3-1cells incubated for 24 hrs by MTT assay; type: toxicity, cell-based; conditions: kb 3-1, 24 h
HeLa = experiment: Cytotoxicity against human HeLa cells incubated for 24 hrs by MTT assay; type: toxicity, cell-based
Escherichia coli = experiment: Antibacterial activity against Escherichia coli DH5a incubated for 18 hrs by spectrophotometric based microdilution assay; type: functional, organism-based

SMILES | Activity (KB 3-1) | Activity (HeLa) | Activity (Escherichia coli)
C=C([C@H]1CC=C(C)CC1)[C@H](O)[C@H]1C[C@@H](C)C(=O)O1 | Non-Toxic | Non-Toxic | 
C=C([C@H]1CC=C(C)CC1)[C@@H](O)[C@H]1C[C@@H](C)C(=O)O1 | Non-Toxic | Non-Toxic | inactive
C=C([C@@H]1CC=C(C)CC1)[C@H](O)[C@H]1C[C@@H](C)C(=O)O1 | Non-Toxic | Non-Toxic | inactive
C=C([C@@H]1CC=C(C)CC1)[C@@H](O)[C@H]1C[C@@H](C)C(=O)O1 | Non-Toxic | Non-Toxic | 
